In experiment [1] the target is Large T antigen (Simian virus 40, UniProt P03070). The class given is functional, Betapolyomavirus macacae.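 Also: Confirmatory-stage PubChem screen for compounds that inhibit SV40 T antigen.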
The target in experiment [2] is Induced myeloid leukemia cell differentiation protein Mcl-1 (Homo sapiens, UniProt Q07820). The class given is functional.
The target of experiment [3] is Tyrosine-protein phosphatase non-receptor type 12 (Homo sapiens, UniProt Q05209). In words: SAR Selectivity Analysis of small molecule inhibitors of PEST using pCAP in a fluorescence assay. [Related pubchem assays (depositor defined):AID1779, AID1784, AID2135]. The class given is functional.
For experiment [4], the target named is T1, Tyrosine-protein phosphatase non-receptor type 22 (Homo sapiens, UniProt Q9Y2R2).
T1 sequence (Q9Y2R2 whole entry): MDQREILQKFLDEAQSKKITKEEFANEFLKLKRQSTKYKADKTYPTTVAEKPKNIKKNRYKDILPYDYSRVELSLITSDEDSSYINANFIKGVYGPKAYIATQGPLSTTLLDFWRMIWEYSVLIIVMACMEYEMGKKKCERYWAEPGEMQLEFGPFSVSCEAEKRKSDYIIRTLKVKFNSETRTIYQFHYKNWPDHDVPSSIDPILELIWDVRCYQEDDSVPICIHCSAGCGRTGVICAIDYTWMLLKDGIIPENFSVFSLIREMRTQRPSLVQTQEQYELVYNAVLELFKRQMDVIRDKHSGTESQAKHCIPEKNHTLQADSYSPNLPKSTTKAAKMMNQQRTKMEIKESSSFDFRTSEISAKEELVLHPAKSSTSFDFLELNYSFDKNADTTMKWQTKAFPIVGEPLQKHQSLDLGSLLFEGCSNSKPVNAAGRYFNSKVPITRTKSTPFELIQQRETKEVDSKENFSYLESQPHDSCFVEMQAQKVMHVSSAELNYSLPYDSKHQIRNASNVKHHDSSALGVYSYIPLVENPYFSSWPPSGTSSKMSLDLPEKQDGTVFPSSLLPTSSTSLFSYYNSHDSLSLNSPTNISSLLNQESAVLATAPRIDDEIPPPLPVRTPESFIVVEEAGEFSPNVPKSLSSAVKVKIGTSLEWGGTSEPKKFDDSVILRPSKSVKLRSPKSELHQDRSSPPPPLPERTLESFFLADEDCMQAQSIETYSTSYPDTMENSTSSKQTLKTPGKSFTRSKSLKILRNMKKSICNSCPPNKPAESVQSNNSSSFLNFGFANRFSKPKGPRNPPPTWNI
Put plainly: SAR LYP1 Fluorescent Assay using OMFP substrate for In Vitro dose response studies - Set 3. [Related pubchem assays (depositor defined):AID1779, AID1784, AID2140, AID2686]. The class given is functional.

Experiment [5] has as its target T2, Tyrosine-protein phosphatase non-receptor type 7 (Homo sapiens, UniProt P35236).
T2 sequence (P35236 whole entry): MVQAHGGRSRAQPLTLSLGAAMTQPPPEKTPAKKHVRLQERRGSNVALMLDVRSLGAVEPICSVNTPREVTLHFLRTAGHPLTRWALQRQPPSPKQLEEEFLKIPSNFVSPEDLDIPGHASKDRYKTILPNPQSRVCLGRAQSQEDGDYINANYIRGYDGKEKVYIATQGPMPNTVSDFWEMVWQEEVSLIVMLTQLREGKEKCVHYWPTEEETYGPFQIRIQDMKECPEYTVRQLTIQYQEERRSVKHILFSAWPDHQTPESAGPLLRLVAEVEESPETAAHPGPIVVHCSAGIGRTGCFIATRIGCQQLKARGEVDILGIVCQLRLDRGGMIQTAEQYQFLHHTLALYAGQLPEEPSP
In words: inhibition of hematopoietic tyrosine phosphatase HePTP – biochemical, set 2, SAR follow-up (AID 449736). The class given is functional.

Experiment [6] addresses T1, Tyrosine-protein phosphatase non-receptor type 22. In words: inhibition of lymphoid tyrosine phosphatase LYP – biochemical, pCAP fluorogenic substrate, fluorescence, set 3, SAR follow-up (AID 449727). The class given is functional.
Experiment [7] in a line: compound autofluorescence in calcium buffer – biochemical, fluorescence, no RTF in test wells, artefact control for cardiac thin filament activator project, dose response (AID 504697).
For experiment [8], the target named is Troponin, cardiac muscle (Homo sapiens, UniProt P19429+P45379+P63316). Put plainly: Fluorescence-based biochemical high throughput dose response assay for activators of the calcium sensitivity of cardiac Regulated Thin Filaments (RTF). [Related pubchem assays (depositor defined):AID493008, AID493018, AID504382, AID504383]. The class given is protein-complex assay.

Experiment [9] addresses T3, G-protein coupled receptor 55 (Homo sapiens, UniProt Q9Y2T6). Put plainly: inhibition of LPI-stimulated GPR55 beta-arrestin translocation – imaging, U2OS, beta-arrestin-GFP, LPI agonist, primary screen (AID 2013).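 Also: antagonist potency measured as reduced agonist-driven arrestin aggregation.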 The class given is functional.
Experiment [10] deals with T4, Cannabinoid receptor 1 (Homo sapiens, UniProt P21554). Put plainly: SAR analysis of antagonists of the Cannabinoid Receptor 1 using an Image-Based Assay - Set 2. [Related pubchem assays (depositor defined):AID2013, AID2026]. The class given is functional.
For experiment [11], the target named is T5, G-protein coupled receptor 35 (Homo sapiens, UniProt Q9HC97). Put plainly: SAR analysis of Agonists of the GPR35 Receptor using an Image-Based Assay - Set 2. [Related pubchem assays (depositor defined):AID2013, AID2026]. The class given is functional.
Experiment [12] concerns the target T6, Cannabinoid receptor 2 (Homo sapiens, UniProt P34972). Put plainly: SAR analysis of antagonists of the Cannabinoid Receptor 2 using an Image-Based Assay. [Related pubchem assays (depositor defined):AID2013, AID2026]. The class given is functional.
For experiment [13], the target named is T4, Cannabinoid receptor 1. Put plainly: SAR analysis of agonists of the Cannabinoid Receptor 1 using an Image-Based Assay - Set 2. [Related pubchem assays (depositor defined):AID2013, AID2026]. The class given is functional.
Experiment [14] deals with T5, G-protein coupled receptor 35. Put plainly: SAR analysis of Antagonists of the GPR35 Receptor using an Image-Based Assay - Set 3. [Related pubchem assays (depositor defined):AID2013, AID2026]. The class given is functional.
In experiment [15] the target is T3, G-protein coupled receptor 55. In words: blockade of LPI-induced GPR55 arrestin translocation – imaging, U2OS, beta-arrestin-GFP, LPI agonist, set 2, SAR follow-up (AID 2820). The class given is functional.
In experiment [16] the target is T6, Cannabinoid receptor 2. In words: SAR analysis of agonists of the Cannabinoid Receptor 2 using an Image-Based Assay. [Related pubchem assays (depositor defined):AID2013, AID2026]. The class given is functional.
In experiment [17] the target is T7, X-box-binding protein 1 (Homo sapiens, UniProt P17861).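 Also: confirmatory dose-response counter-screen serving a CHOP assay.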
T7 sequence (P17861 whole entry): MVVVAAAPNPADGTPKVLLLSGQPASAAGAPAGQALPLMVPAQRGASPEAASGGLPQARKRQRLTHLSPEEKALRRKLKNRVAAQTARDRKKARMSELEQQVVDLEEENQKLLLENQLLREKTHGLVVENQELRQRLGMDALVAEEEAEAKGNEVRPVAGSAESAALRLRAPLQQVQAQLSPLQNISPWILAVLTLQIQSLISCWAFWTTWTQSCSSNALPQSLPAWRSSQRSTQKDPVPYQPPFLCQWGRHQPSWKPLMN
The class given is functional, Cricetulus griseus.

The nature of experiment [18]: blockers of HIV-1 envelope-mediated cell-cell fusion – cherry-pick, dose response (AID 652057). The class given is functional, cell-based.
The nature of experiment [19]: viability loss in CEM21 cells – cell-based, CellTiter-Glo luminescence, cherry-picked, cytotoxicity control for viral fusion inhibitor project, dose response (AID 652042).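 Also: potency for signal decrease meaning cytotoxicity.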 The class given is functional. (In general: ATP-based viability assays read luminescence as a measure of living cells.)
Experiment [20] is described as follows: blockers of HIV-1 ZM109 envelope-driven cell-cell fusion – HeLa effector, CEM target cells, luciferase, cherry-pick, dose response (AID 652058).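 Also: luciferase signal from HIV-1 Env mediated cell-cell fusion of effector and target cells.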 The class given is functional, cell-based.
The nature of experiment [21]: off-target signal loss in HeLa-CEM21 co-culture – HeLa F-luc CTL cells, cherry-picked, counter-screen for HIV-1 Env fusion inhibitor project, dose response (AID 652040).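 Also: potency for signal decrease marking cytotoxic or nonspecific inhibition.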 The class given is functional, cell-based. For orientation: Counterscreens check selectivity or assay interference.
The nature of experiment [22]: HIV-1 AD8 envelope cell-cell fusion blockers – cherry-pick, dose response (AID 652062).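 Also: luciferase signal from cell-cell fusion driven by HIV-1 clade B AD8 Env; potency is for inhibitors of fusion seen as a drop in luminescence.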 The class given is functional, cell-based.
Experiment [23] concerns the target T5, G-protein coupled receptor 35. In words: SAR analysis of Agonists of the GPR35 Receptor using an Image-Based Assay - Set 4. [Related pubchem assays (depositor defined):AID2013, AID2026]. The class given is functional.
Experiment [24] addresses T4, Cannabinoid receptor 1. In words: SAR analysis of agonists of the Cannabinoid Receptor 1 using an Image-Based Assay - Set 4. [Related pubchem assays (depositor defined):AID2013, AID2026]. The class given is functional.
Experiment [25] deals with T5, G-protein coupled receptor 35. In words: SAR analysis of Antagonists of the GPR35 Receptor using an Image-Based Assay - Set 6. [Related pubchem assays (depositor defined):AID2013, AID2026]. The class given is functional.
Experiment [26] addresses T4, Cannabinoid receptor 1. Put plainly: SAR analysis of antagonists of the Cannabinoid Receptor 1 using an Image-Based Assay - Set 4. [Related pubchem assays (depositor defined):AID2013, AID2026]. The class given is functional.
Experiment [27] has as its target T3, G-protein coupled receptor 55. In words: SAR Analysis of Selective Antagonists of GPR55 using an Image-Based Assay - Set 4. [Related pubchem assays (depositor defined):AID2013, AID2026]. The class given is functional.
Experiment [28] addresses T6, Cannabinoid receptor 2. In words: SAR analysis of antagonists of the Cannabinoid Receptor 2 using an Image-Based Assay - Set 3. [Related pubchem assays (depositor defined):AID2013, AID2026]. The class given is functional.
Experiment [29] addresses T6, Cannabinoid receptor 2. Put plainly: SAR analysis of agonists of the Cannabinoid Receptor 2 using an Image-Based Assay - Set 3. [Related pubchem assays (depositor defined):AID2013, AID2026]. The class given is functional.
Experiment [30] deals with CAAX prenyl protease 2 (Saccharomyces cerevisiae S288c, UniProt Q03530). The class given is biochemical.
The nature of experiment [31]: toxicity toward cultured mammalian cells – cell-based, plate reader, cherry-pick samples, cytotoxicity control, dose response (AID 504397). The class given is functional.

Values joined by “and” are separate entries in the source; they are usually repeats but may differ in a detail not shown here. Equal entries are not always repeated. Active and inactive are the calls of the source. Where only a bound is given, the exact number is not on record here.

The IC50 is the concentration needed to halve the response being measured. A word on the EC50: it is the concentration needed to bring the measured effect to its halfway point. In general, AC50 refers to the concentration at which the activity in the assay is half-maximal.

T4 sequence (P21554 whole entry): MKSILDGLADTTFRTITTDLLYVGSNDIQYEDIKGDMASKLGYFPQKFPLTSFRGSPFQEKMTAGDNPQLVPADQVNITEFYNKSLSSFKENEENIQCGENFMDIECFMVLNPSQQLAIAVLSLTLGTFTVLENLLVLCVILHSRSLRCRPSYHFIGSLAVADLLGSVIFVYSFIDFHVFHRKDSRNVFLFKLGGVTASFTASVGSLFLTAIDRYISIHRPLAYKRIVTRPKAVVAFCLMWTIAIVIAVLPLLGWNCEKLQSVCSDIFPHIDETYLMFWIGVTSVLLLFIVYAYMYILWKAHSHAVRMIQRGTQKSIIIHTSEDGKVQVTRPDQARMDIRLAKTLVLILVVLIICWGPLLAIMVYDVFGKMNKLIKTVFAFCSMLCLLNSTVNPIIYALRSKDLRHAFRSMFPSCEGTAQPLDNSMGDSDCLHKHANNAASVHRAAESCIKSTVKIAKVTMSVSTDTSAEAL
T3 sequence (Q9Y2T6 whole entry): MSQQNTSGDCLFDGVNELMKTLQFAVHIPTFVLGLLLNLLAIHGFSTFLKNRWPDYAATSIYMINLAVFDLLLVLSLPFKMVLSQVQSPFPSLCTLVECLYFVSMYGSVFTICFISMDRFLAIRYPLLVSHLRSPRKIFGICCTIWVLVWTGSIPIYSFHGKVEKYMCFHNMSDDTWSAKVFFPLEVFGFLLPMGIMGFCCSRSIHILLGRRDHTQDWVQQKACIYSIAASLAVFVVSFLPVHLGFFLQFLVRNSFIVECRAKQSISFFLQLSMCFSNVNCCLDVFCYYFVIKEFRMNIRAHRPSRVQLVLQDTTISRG
T5 sequence (Q9HC97 whole entry): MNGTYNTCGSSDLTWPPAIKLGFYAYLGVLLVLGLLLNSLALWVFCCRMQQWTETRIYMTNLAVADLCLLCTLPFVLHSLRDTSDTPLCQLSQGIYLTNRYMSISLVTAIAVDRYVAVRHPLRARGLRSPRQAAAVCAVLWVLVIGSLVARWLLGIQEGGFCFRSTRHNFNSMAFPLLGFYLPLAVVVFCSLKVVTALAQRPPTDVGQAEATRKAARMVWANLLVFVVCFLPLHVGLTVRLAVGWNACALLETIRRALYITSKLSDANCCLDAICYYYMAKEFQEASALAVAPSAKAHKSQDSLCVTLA
T6 sequence (P34972 whole entry): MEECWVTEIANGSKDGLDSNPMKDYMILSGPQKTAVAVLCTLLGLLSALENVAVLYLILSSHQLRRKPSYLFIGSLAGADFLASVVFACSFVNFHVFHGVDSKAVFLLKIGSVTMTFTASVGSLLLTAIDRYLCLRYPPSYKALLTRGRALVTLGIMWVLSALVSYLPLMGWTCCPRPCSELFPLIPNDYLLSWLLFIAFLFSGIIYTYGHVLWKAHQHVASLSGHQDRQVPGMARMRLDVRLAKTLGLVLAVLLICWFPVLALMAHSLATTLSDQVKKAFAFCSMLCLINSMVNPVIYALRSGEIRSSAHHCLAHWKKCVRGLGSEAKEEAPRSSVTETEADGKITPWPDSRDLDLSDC
Chain of Tyrosine-protein phosphatase non-receptor type 12 (Q05209 whole entry): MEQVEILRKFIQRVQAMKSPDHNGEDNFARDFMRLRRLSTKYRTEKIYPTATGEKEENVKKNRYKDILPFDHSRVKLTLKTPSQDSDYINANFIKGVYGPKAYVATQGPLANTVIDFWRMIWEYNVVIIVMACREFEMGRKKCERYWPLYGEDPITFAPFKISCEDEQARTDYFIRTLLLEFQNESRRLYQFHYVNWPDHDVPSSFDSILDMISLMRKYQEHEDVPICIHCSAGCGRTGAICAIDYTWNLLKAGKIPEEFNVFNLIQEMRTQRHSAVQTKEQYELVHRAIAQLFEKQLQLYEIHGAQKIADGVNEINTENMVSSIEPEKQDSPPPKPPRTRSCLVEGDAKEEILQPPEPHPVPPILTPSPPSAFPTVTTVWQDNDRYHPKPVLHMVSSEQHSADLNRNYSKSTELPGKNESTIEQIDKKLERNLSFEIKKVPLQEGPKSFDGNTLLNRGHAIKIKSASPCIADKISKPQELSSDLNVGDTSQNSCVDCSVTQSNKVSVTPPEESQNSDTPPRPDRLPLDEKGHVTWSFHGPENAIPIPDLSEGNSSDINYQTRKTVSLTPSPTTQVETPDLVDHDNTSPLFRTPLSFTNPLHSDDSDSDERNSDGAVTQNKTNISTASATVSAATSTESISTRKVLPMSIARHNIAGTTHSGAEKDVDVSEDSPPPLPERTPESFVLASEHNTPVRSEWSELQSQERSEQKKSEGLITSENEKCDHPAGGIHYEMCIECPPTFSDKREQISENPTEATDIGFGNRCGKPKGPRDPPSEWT
Chain of CAAX prenyl protease 2 (Q03530 whole entry): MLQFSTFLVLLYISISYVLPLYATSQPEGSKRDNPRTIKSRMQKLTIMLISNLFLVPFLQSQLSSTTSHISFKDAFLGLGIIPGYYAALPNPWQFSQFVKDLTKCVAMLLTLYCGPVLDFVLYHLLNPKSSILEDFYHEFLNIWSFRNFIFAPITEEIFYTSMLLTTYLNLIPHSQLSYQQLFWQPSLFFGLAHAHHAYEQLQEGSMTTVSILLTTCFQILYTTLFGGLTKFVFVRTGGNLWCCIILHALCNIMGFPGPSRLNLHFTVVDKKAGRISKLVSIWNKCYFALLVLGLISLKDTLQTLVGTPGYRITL
Chain of Induced myeloid leukemia cell differentiation protein Mcl-1 (Q07820 whole entry): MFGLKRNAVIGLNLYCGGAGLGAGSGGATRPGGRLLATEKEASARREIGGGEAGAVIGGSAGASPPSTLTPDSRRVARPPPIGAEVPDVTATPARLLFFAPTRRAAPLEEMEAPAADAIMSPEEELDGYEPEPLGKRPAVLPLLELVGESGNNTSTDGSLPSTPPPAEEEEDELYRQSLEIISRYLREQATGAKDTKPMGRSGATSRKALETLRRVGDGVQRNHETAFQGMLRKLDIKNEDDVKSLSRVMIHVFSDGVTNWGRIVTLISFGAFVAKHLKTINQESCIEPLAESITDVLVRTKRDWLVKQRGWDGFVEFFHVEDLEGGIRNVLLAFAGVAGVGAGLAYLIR
Chain of Large T antigen (P03070 whole entry): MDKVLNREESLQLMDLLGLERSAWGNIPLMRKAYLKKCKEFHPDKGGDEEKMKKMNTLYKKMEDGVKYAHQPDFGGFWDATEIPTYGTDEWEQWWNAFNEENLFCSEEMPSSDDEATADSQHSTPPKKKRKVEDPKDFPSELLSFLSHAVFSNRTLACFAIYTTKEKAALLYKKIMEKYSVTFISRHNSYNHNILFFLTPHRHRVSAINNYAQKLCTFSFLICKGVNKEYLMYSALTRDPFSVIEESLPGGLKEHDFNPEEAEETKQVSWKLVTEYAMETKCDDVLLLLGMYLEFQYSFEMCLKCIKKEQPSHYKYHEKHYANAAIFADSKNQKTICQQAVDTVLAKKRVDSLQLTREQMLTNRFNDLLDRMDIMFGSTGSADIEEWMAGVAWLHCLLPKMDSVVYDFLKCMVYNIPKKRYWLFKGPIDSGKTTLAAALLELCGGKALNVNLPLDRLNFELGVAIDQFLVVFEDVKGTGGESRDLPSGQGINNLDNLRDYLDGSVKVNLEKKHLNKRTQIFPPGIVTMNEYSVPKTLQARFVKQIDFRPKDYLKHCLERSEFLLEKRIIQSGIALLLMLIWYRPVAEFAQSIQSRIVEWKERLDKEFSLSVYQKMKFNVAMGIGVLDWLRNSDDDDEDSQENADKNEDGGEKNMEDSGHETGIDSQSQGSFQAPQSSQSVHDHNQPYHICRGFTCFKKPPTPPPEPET

For the molecule `CC(/C=C1\SC(=S)N(CCCC(=O)Nc2ccc(C(=O)O)c(O)c2)C1=O)=C\c1ccccc1`, the IC50 in experiment [1] is > 100 µM (active); in [2], 1.56 µM (active); in experiment [3] it was 14 µM (active) and 9.91 µM (active); in experiment [4] it was 49.1 µM (active) and 44.9 µM (active); in [5] it was 739 nM (active) and 703 nM (active); in experiment [6], 37.9 µM (active) and 40.9 µM (active).

Consider `N#C/C(=C/c1ccc(-c2ccccc2)o1)c1nc(-c2cccs2)cs1`, for which the EC50 in experiment [7] was > 7.94 µM (active); in experiment [8], 0.615 µM (active).

For `CC1=CC(C)(C)N2C(=O)C3(SCC(=O)N3c3ccc(F)cc3)c3cc(C)cc1c32` (stereo unspecified), the half-maximal inhibitory concentration (IC50) in experiment [9] is 4.09 µM (active); in [10], 6.41 µM (active); in experiment [12], > 32 µM (inactive); in [14] it was > 32 µM (inactive); in experiment [15] it was 1.42 µM (active). Further, the EC50 in [11], in [13] and in [16] was > 32 µM (inactive) in each case. Besides, the “Absolute IC50 (XBP1)” value in experiment [17] was under 10 µM. The AC50 in experiment [18] is 23.7 µM (active); in [19], 53.1 µM (active); in experiment [20] it was 1.13 µM (active); in [21], 43.1 µM (active); in experiment [22], 21.8 µM (active).

`Cc1nc(N2CCN(C(=O)C3CCCCC3)CC2)c2c3c(sc2n1)CCCC3`: the EC50 in experiment [23], in experiment [24] and in experiment [29] was > 32 µM (inactive) in each case. The IC50 was > 32 µM (inactive) in [25], 3.05 µM (active) in [26], 9.24 µM (active) in experiment [27] and > 16.8 µM (inactive) in [28].

As to `Cc1ccsc1/C=N/NC(=O)c1nnn(-c2nonc2N)c1C(C)C`, the results for the AC50 in [30] and in [31] were 0.87 µM (active) and 67.6 µM (active), respectively.

The values are drawn from ChEMBL document CHEMBL1201862, “PubChem BioAssay data set” (2004).
